The results in this text go back to patent US8183272B2, “Indanyl compounds” (Daiichi Sankyo Company, Limited, priority 2008, dated 2012).

Where a name gives a salt, the structure may show the parent alone.

The target in the test is T1, human calcium-sensing receptor (CaSR) (Homo sapiens, UniProt P41180).
T1 construct: expressed in transfected cells; host or cells: CHO cells (CHO/hCaSR)
T1 sequence (P41180 20-1078): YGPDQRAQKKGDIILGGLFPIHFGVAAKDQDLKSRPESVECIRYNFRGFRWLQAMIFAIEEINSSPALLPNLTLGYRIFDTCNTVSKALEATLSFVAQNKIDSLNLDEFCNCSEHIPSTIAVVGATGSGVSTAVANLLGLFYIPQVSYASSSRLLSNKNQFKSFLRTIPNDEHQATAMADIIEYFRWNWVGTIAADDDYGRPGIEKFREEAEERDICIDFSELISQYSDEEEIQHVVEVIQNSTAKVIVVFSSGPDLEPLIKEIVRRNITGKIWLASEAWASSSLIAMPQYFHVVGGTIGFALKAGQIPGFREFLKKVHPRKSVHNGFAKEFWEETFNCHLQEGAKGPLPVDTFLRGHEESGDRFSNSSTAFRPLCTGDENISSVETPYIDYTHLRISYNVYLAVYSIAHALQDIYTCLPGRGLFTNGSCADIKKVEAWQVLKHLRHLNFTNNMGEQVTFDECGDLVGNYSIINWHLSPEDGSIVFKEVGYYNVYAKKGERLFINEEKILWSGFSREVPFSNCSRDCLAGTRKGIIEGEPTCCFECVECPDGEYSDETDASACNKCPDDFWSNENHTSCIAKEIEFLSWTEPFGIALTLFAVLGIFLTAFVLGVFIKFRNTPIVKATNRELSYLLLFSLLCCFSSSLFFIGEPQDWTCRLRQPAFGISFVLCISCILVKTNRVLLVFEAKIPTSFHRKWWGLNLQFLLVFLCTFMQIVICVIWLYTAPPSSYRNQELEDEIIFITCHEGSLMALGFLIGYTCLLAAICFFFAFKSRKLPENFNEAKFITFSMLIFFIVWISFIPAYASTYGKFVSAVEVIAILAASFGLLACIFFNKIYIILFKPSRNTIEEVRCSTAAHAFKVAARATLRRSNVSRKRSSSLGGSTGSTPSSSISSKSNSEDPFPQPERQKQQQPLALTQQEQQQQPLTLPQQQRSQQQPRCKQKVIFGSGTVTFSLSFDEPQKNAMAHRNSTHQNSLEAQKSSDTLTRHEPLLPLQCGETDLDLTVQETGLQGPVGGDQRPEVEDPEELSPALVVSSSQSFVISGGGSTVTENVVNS
The experiment in a line: Inhibitory activity on calcium-sensing receptor (CaSR) using intracellular calcium increase as an indicator (FLIPR, CHO/hCaSR). As to conditions: CHO/hCaSR cells; intracellular Ca increase induced by CaCl2; test compound 1.05 to 10,000 nM. It counts as cell-based. The protocol: Evaluation of inhibitory activity on calcium-sensing receptor (CaSR) using intracellular calcium increase as an indicator
The preparation which is prepared by adding CHO/hCaSR to F12 medium (manufactured by Invitrogen) containing 10% fetal bovine serum to have 2×10^5 cells/mL was applied to a 384-well in an amount of 50 μL/well, and then incubated overnight in a CO2 incubator. The culture supernatant was completely removed, the assay buffer (20 mM HEPES, HBSS (Ca and Mg free) containing 2.5 mM probenecid, pH 7.4) containing Calcium 3 (manufactured by Molecular Devices), i.e., a fluorescent intracellular calcium indicator, was added thereto in an amount of 25 μL/well, and the mixture was maintained for 1 hour in a CO2 incubator. Meanwhile, Calcium 3 was prepared according to the protocol enclosed in FLIPR Calcium 3 Assay Kit (manufactured by Molecular Devices). After maintaining it for 1 hour, a solution in which the test compound is prepared to have 2.1 to 20,000 nM (final concentration of 1.05 to 10,000 nM) by an assay buffer was added thereto in an amount of 25 μL/well, and maintained for 15 minutes in a CO2 incubator. Then, the CaCl2 solution prepared to have […] by using the assay buffer was added in an amount of 25 μL/well, and the resulting intracellular Ca increase (i.e., fluorescence intensity) was measured over time using a fluorescence imaging plate reader (FLIPR, manufactured by Molecular Devices). From the data obtained, the difference between the fluorescence intensity before the addition of CaCl2 solution and the maximum fluorescence intensity after the addition of CaCl2 solution was calculated, and the 50% inhibition concentration (IC50) of the test compound was obtained.
With `C[C@@H](OC[C@H](O)CNC(C)(C)CC1Cc2ccccc2C1)c1cc(F)ccc1CCC(=O)O` [Example 9, 3-{2-[(1R)-1-{[(2R)-3-{[1-(2,3-Dihydro-1H-inden-2-yl)-2-methylpropan-2-yl]amino}-2-hydroxypropyl]oxy}ethyl]-4-fluorophenyl}propanoic acid], the IC50 is no more than 2400 nM. Consider `CC[C@@H](OC[C@H](O)CNC(C)(C)CC1Cc2ccccc2C1)c1ccccc1CCC(=O)O` [Example 18], for which the IC50 is no more than 2420 nM. Regarding `Cc1ccc([C@@H](C)OC[C@H](O)CNC(C)(C)CC2Cc3ccccc3C2)c(CCC(=O)O)c1` [Example 5, 3-{2-[(1R)-1-{[(2R)-3-{[1-(2,3-Dihydro-1H-inden-2-yl)-2-methylpropan-2-yl]amino}-2-hydroxypropyl]oxy}ethyl]-5-methylphenyl}propanoic acid], the half-maximal inhibitory concentration (IC50) was no more than 2420 nM.

With `C[C@@H](OC[C@H](O)CNC(C)(C)CC1Cc2ccccc2C1)c1cccc(F)c1CCC(=O)O` [Example 7, 3-{2-[(1R)-1-{[(2R)-3-{[1-(2,3-Dihydro-1H-inden-2-yl)-2-methylpropan-2-yl]amino}-2-hydroxypropyl]oxy}ethyl]-6-fluorophenyl}propanoic acid], the half-maximal inhibitory concentration (IC50) was no more than 2400 nM.

For the compound `C[C@@H](OC[C@H](O)CNC(C)(C)CC1Cc2ccccc2C1)c1ccccc1CC(C)(C)C(=O)O` [Example 82, 3-{2-[(1R)-1-{[(2R)-3-{[1-(2,3-Dihydro-1H-inden-2-yl)-2-methylpropan-2-yl]amino}-2-hydroxypropyl]oxy}ethyl]phenyl}-2,2-dimethylpropanoic acid], the concentration for half-maximal inhibition (IC50) is no more than 2350 nM.

`C[C@@H](OC[C@H](O)CNC(C)(C)CC1Cc2ccccc2C1)c1ccccc1CCC(=O)O` [Example 1, 3-{2-[(1R)-1-{[(2R)-3-{[1-(2,3-Dihydro-1H-inden-2-yl)-2-methylpropan-2-yl]amino}-2-hydroxypropyl]oxy}ethyl]phenyl}propanoic acid]: the 50% inhibitory concentration (IC50) was no more than 2500 nM. Then `CCC[C@@H](OC[C@H](O)CNC(C)(C)CC1Cc2ccccc2C1)c1cccc(F)c1CCC(=O)O` [Example 53], with no more than 2270 nM; and `COc1ccc([C@@H](C)OC[C@H](O)CNC(C)(C)CC2Cc3ccccc3C2)c(CCC(=O)O)c1` [Example 16], with no more than 2340 nM; and `C[C@@H](OC[C@H](O)CNC(C)(C)CC1Cc2ccccc2C1)c1ccccc1CCc1nn[nH]n1` [Example 81, (2R)-1-{[2-(2,3-Dihydro-1H-inden-2-yl)-1,1-dimethylethyl]amino}-3-[(1R)-1-{2-[2-(2H-tetrazol-5-yl)ethyl]phenyl}ethoxy]propan-2-ol formate], with no more than 2160 nM. As for `Cc1ccc(CCCCC(=O)O)c([C@@H](C)OC[C@H](O)CNC(C)(C)CC2Cc3ccccc3C2)c1` [Example 46], the IC50 was no more than 2280 nM.

`CCC[C@@H](OC[C@H](O)CNC(C)(C)CC1Cc2ccccc2C1)c1cc(F)ccc1CCC(=O)O` [Example 51]: the IC50 was no more than 2270 nM. Then `CC[C@@H](OC[C@H](O)CNC(C)(C)CC1Cc2ccccc2C1)c1cc(F)ccc1CCC(=O)O` [Example 38], with no more than 2330 nM; and `CCC[C@@H](OC[C@H](O)CNC(C)(C)CC1Cc2ccccc2C1)c1cccc(C)c1CCC(=O)O` [Example 52], with no more than 2280 nM. To `CCOc1ccc(CCC(=O)O)c([C@@H](C)OC[C@H](O)CNC(C)(C)CC2Cc3ccccc3C2)c1` [Example 56] belongs no more than 2270 nM. Regarding `C[C@@H](OC[C@H](O)CNC(C)(C)CC1Cc2ccccc2C1)c1ccc(F)cc1CCC(=O)O` [Example 8, 3-{2-[(1R)-1-{[(2R)-3-{[1-(2,3-Dihydro-1H-inden-2-yl)-2-methylpropan-2-yl]amino}-2-hydroxypropyl]oxy}ethyl]-5-fluorophenyl}propanoic acid], the IC50 was no more than 2400 nM. Then `C[C@@H](OC[C@H](O)CNC(C)(C)CC1Cc2ccccc2C1)c1cc(F)cc(F)c1CCC(=O)O` [Example 27], with no more than 2310 nM; and `Cc1ccc(CCC(=O)O)c([C@@H](C)OC[C@H](O)CNC(C)(C)CC2Cc3ccccc3C2)c1` [Example 6, 3-{2-[(1R)-1-{[(2R)-3-{[1-(2,3-Dihydro-1H-inden-2-yl)-2-methylpropan-2-yl]amino}-2-hydroxypropyl]oxy}ethyl]-4-methylphenyl}propanoic acid], with no more than 2420 nM. Regarding `Cc1cc(CCCCC(=O)O)c([C@@H](C)OC[C@H](O)CNC(C)(C)CC2Cc3ccccc3C2)cc1F` [Example 23], the IC50 was no more than 2200 nM. As for `C[C@@H](OC[C@H](O)CNC(C)(C)CC1Cc2ccccc2C1)c1cccc(F)c1CCCCC(=O)O` [Example 48], the IC50 is no more than 2270 nM. Regarding `CC(OC[C@H](O)CNC(C)(C)CC1Cc2ccccc2C1)c1c(Cl)cccc1CCC(=O)O` (stereo partly drawn) [Example 33], the IC50 was no more than 2320 nM. With `C[C@@H](OC[C@H](O)CNC(C)(C)CC1Cc2ccccc2C1)c1ccccc1CCCCCC(=O)O` [Example 67], the concentration for half-maximal inhibition (IC50) was no more than 2280 nM. As for `C[C@@H](OC[C@H](O)CNC(C)(C)CC1Cc2ccccc2C1)c1ccc(Cl)cc1CCCCC(=O)O` [Example 72], the IC50 is no more than 2190 nM.

Take `CCC[C@@H](OC[C@H](O)CNC(C)(C)CC1Cc2ccccc2C1)c1ccccc1CCC(=O)O` [Example 21]: the 50% inhibitory concentration (IC50) was no more than 2350 nM. Turning to `CC[C@@H](OC[C@H](O)CNC(C)(C)CC1Cc2ccccc2C1)c1cc(F)c(C)cc1CCCCC(=O)O` [Example 61], the concentration for half-maximal inhibition (IC50) was no more than 2140 nM.

Regarding `Cc1cc(-c2ccccc2[C@@H](C)OC[C@H](O)CNC(C)(C)CC2Cc3ccccc3C2)ccc1C(=O)O` [Example 3, 2′-[(1R)-1-{[(2R)-3-{[1-(2,3-Dihydro-1H-inden-2-yl)-2-methylpropan-2-yl]amino}-2-hydroxypropyl]oxy}ethyl]-3-methylbiphenyl-4-carboxylic acid], the IC50 was no more than 2190 nM. For `CC[C@@H](OC[C@H](O)CNC(C)(C)CC1Cc2ccccc2C1)c1cc(F)c(C)cc1CCC(=O)O` [Example 60], the IC50 was no more than 2270 nM.

For the compound `CCC[C@@H](OC[C@H](O)CNC(C)(C)CC1Cc2ccccc2C1)c1ccc(C)cc1CCC(=O)O` [Example 54], the concentration for half-maximal inhibition (IC50) was no more than 2280 nM. Consider `C[C@@H](OC[C@H](O)CNC(C)(C)CC1Cc2ccccc2C1)c1ccc(F)cc1CCCCC(=O)O` [Example 44], for which the IC50 was no more than 2270 nM. For the compound `Cc1cc(-c2ccccc2[C@@H](C)OC[C@H](O)CNC2(CC3Cc4ccccc4C3)CC2)ccc1C(=O)O` [Example 12, 2′-[(1R)-1-{[(2R)-3-{[1-(2,3-Dihydro-1H-inden-2-ylmethyl)cyclopropyl]amino}-2-hydroxypropyl]oxy}ethyl]-3-methylbiphenyl-4-carboxylic acid], the IC50 was no more than 2200 nM. Then `Cc1cccc([C@@H](C)OC[C@H](O)CNC(C)(C)CC2Cc3ccccc3C2)c1CCC(=O)O` [Example 42], with no more than 2420 nM; and `CC[C@@H](OC[C@H](O)CNC(C)(C)CC1Cc2ccccc2C1)c1ccc(C)cc1CCC(=O)O` [Example 40], with no more than 2350 nM; and `C[C@@H](OC[C@H](O)CNC(C)(C)CC1Cc2ccccc2C1)c1ccccc1CCCCCCC(=O)O` [Example 68], with no more than 2220 nM. As to `C[C@@H](OC[C@H](O)CNC(C)(C)CC1Cc2ccccc2C1)c1c(F)cccc1CCC(=O)O` [31 low polarity, 3-{2-[(1R)-1-{[(2R)-3-{[1-(2,3-dihydro-1H-inden-2-yl)-2-methylpropan-2-yl]amino}-2-hydroxypropyl]oxy}ethyl]-3-fluorophenyl}propanoic acid], the IC50 is no more than 2400 nM.
